Reference: patent US20180186823A1, “PLATINUM COMPOUNDS, COMPOSITIONS, AND USES THEREOF” (PLACON THERAPEUTICS, INC., priority 2015, published 2018)
Like-named read-outs stand apart in the source and are kept apart here.

Key:
[1] = system: MX-1 human breast cancer xenograft; assay type: in vivo, mouse; settings: for % T/C (mean tumor volume) / % T/C (median tumor volume) / Mean tumor volume / Median tumor volume: days 1, 5, 8, 12
Text: MX-1 cell line is estrogen receptor negative and Her2 normal. It is generic and BRCA1 and BRCA2 mutant: BRCA1 truncating mutation (3363delGAAA) and BRCA2 mutations (16864A>C, Asn289His, and 22184A>G, Asn991Asp). Average tumor volumes and platinum levels in the tumors were shown in FIG. 29 and Table 9. % T/C in Table 9 is the tumor to control ratio, i.e., the size of tumor divided by the size of tumor control. The lower % T/C is, the higher TGI % is.

A2780 ovarian xenografts = test: Tumor growth inhibition in A2780 ovarian xenografts in nude mice; assay type: in vivo, mouse; settings: for TGI %: dose not given; for TGI % compared to cisplatin and oxaliplatin (FIG. 17): in vivo screen, A2780 model
Text: (§1) Tumor measurements were taken twice weekly, using vernier calipers.

H460 cells = test: In vitro inhibition of cell proliferation (CellTiter-Glo); assay type: cell-based, human; settings: 48 hours treatment; starting dose 20 uM, three-fold dilutions
Procedure: Human cancer cell lines were plated in 96 well plates (Costar) and 24 hours later were treated with a compound for 48-72 hours. Specifically, H460 cells (ATCC) were plated at a concentration of 1,500 cells per well and compound treatment was carried out for 48 hours. Compound starting dose was 20 uM and three-fold serial dilutions were done for a total of ten points. Inhibition of cell proliferation was measured using CellTiter-Glo® reagent using the standard protocol (Promega) and a Glomax® multi+detection system (Promega). Percent proliferation inhibition was calculated using the following formula: % inhibition=(control-treatment)/control*100. Control is defined as vehicle alone. IC50 curves were generated using the nonlinear regression analysis (four parameter) with GraphPad Prism 6.

[2] = Tumor platinum levels (ICP-MS) in H460 tumor-bearing nude mice; assay type: in vivo, mouse
Procedure: To examine the ability of compounds disclosed herein to accumulate in tumors, a murine cancer model was used. Animals were inoculated with 5×10^5 H460 […] lung cancer cells via subcutaneous injection to the flank. Tumors were allowed to reach an approximate volume of ˜500 mm^3. Animals were then randomized into treatment groups of 3 animals per time point and were dosed at 4 mg/kg. The 24-hour time point was used as a benchmark across compounds.
Tumor platinum levels were determined by inductively coupled plasma mass spectrometry (ICP-MS). Tumors were excised from animals and dissolved in fuming nitric acid (60% w/w) by adding four parts nitric acid to 1 part tumor w/w and heating overnight at 60° C. The resulting digest was diluted 1:10 in ICP-MS analysis buffer (1% nitric acid, 2% Triton® X-100), and directly introduced into the ICP-MS unit by peristaltic pump. The end dilution factor for the samples as introduced to the ICP-MS was 50×.

Calu-6 NSCLC xenografts = test: Tumor growth inhibition in Calu-6 NSCLC xenografts in nude mice; assay type: in vivo, mouse; settings: dose not given
Text: as §1

Rat toxicology study = assay type: in vivo
NCI-H520 = test: Multiple-dose efficacy study in lung cancer (NSCLC) model NCI-H520; assay type: in vivo; settings: 15 mg/kg
Procedure: Tumor volumes and platinum levels were tracked over a course of 32 days after treatment of multiple doses of compound 8 (dosed at days 0, 3, 7 and 10) in lung cancer (NSCLC) model NCI-H520. Compound 8 was dosed at 15 mg/kg.
Cell dedifferentiation and apoptosis were studied with immunohistochemical (IHC) and TUNEL stainings.

[3] = Table 5 study, A2780 xenografts
[4] = H460 tumors, dosed at 4 mg/kg, 24-hour time point
[5] = Table 6 study, Calu-6 xenografts
[6] = nude, mouse, in vivo, 4 mg/kg, 24 h

Molecule: N.N.[Cl][Pt][Cl] [Cisplatin]
- % T/C (mean tumor volume) ([1]; Day 1, 3 mg/kg): 100.6%
- % T/C (median tumor volume) ([1]; Day 1, 3 mg/kg): 105.5%
- Mean tumor volume ([1]; Day 1, 3 mg/kg): 153.6 mm^3
- Median tumor volume ([1]; Day 1, 3 mg/kg): 155.2 mm^3
- % T/C (mean tumor volume) ([1]; Day 5, 3 mg/kg): 96.2%
- % T/C (median tumor volume) ([1]; Day 5, 3 mg/kg): 107.3%
- Mean tumor volume ([1]; Day 5, 3 mg/kg): 343.7 mm^3
- Median tumor volume ([1]; Day 5, 3 mg/kg): 350.2 mm^3
- % T/C (mean tumor volume) ([1]; Day 8, 3 mg/kg): 39.3%
- % T/C (median tumor volume) ([1]; Day 8, 3 mg/kg): 42.9%
- Mean tumor volume ([1]; Day 8, 3 mg/kg): 251.2 mm^3
- Median tumor volume ([1]; Day 8, 3 mg/kg): 266.3 mm^3
- % T/C (mean tumor volume) ([1]; Day 12, 3 mg/kg): 4.9%
- % T/C (median tumor volume) ([1]; Day 12, 3 mg/kg): 5.4%
- Mean tumor volume ([1]; Day 12, 3 mg/kg): 57.6 mm^3
- Median tumor volume ([1]; Day 12, 3 mg/kg): 57.6 mm^3
- TGI % Day 15 ([1]; Day 15, 3 mg/kg): 98.6%
- % T/C (mean tumor volume) ([1]; Day 15, 3 mg/kg): 1.4%
- % T/C (median tumor volume) ([1]; Day 15, 3 mg/kg): 1.5%
- Mean tumor volume ([1]; Day 15, 3 mg/kg): 26.7 mm^3
- Median tumor volume ([1]; Day 15, 3 mg/kg): 29.7 mm^3
- TGI % (A2780 ovarian xenografts; Table 2 study, comparators): 54.5%
- TGI % (A2780 ovarian xenografts; Table 3 study, comparators): 44.2%
- TGI % (A2780 ovarian xenografts; [3]): 53.04%
- IC50 (H460 cells): 2000 nM
- Platinum in tumor (mM/mmole/kg platinum dosed) [2, 4]: 0.27 mM/mmole/kg platinum dosed
- TGI % (Calu-6 NSCLC xenografts; Table 4 study, comparators): 91.4%
- TGI % (Calu-6 NSCLC xenografts; [5]): 94.57%

Molecule: CCNC(=O)[O][Pt]([NH2])([NH2])([Cl])([Cl])[O]C(=O)CCCCCN1C(=O)C=CC1=O [Compound 7]
- Platinum in tumor (mM/mmole/kg platinum dosed) [2, 6]: 0.51 mM/mmole/kg platinum dosed

Molecule: CC(=O)[O][Pt]([NH2])([NH2])([Cl])([Cl])[O]C(=O)NCCCCCN1C(=O)C=CC1=O [Compound 8]
- tumor outcome at day 15 (in words) ([1]; day 15): Tumor disappeared
- TGI % compared to cisplatin and oxaliplatin (FIG. 17) (A2780 ovarian xenografts): superior TGI % to cisplatin and oxaliplatin
- kidney toxicity (blood markers and histopathology) compared to cisplatin (Rat toxicology study; at a higher dose of platinum): improvement in kidney toxicity compared to cisplatin
- other histopathology findings (Rat toxicology study; rat, in vivo): No other histopathology findings
- Platinum in tumor (mM/mmole/kg platinum dosed) [2, 6]: 0.51 mM/mmole/kg platinum dosed
- tumor growth inhibition versus cisplatin (NCI-H520; days 0, 3, 7 and 10, cisplatin 3 mg/kg, 32 days): superior tumor growth inhibition than cisplatin
- apoptosis and dedifferentiation in tumors (IHC, TUNEL) (NCI-H520; images from day 10): significant and sustained increase in apoptosis and dedifferentiation

Molecule: COCC(=O)[O][Pt]([NH2])([NH2])([Cl])([Cl])[O]C(=O)CCCCCN1C(=O)C=CC1=O [Compound 9]
- Platinum in tumor (mM/mmole/kg platinum dosed) [2, 6]: 0.53 mM/mmole/kg platinum dosed

Molecule: CC(=O)[O][Pt]([NH2])([NH2])([Cl])([Cl])[O]C(=O)CCCCCN1C(=O)C=CC1=O [Compound 11]
- TGI % compared to cisplatin and oxaliplatin (FIG. 17) (A2780 ovarian xenografts): superior TGI % to cisplatin and oxaliplatin
- Platinum in tumor (mM/mmole/kg platinum dosed) [2, 6]: 0.68 mM/mmole/kg platinum dosed

Molecule: O=C1[O][Pt]2([NH][C@@H]3CCCC[C@H]3[NH]2)[O]C1=O [Oxaliplatin]
- TGI % (A2780 ovarian xenografts; Table 2 study, comparators): 45.9%
- TGI % (A2780 ovarian xenografts; Table 3 study, comparators): 40.1%
- TGI % (A2780 ovarian xenografts; [3]): 43.75%
- Platinum in tumor (mM/mmole/kg platinum dosed) [2, 4]: 0.12 mM/mmole/kg platinum dosed
- TGI % (Calu-6 NSCLC xenografts; Table 4 study, comparators): 56.7%
- TGI % (Calu-6 NSCLC xenografts; [5]): 21.19%

Molecule: acetate 6-(2,5-dioxo-2H-pyrrol-1(5H)-yl) hexanoate oxaliplatin [Compound 1]
- TGI % compared to cisplatin and oxaliplatin (FIG. 17) (A2780 ovarian xenografts): superior TGI % to cisplatin and oxaliplatin
- Platinum in tumor (mM/mmole/kg platinum dosed) [2, 4]: 0.57 mM/mmole/kg platinum dosed
